Experimental data reported in patent US20220213156A1, “Peptides for use in therapy or prophylaxis of Herpesviridae-infections” (priority 2019, published 2022).
Residues, ends and D or L forms follow the SMILES beside them.

How the values were obtained:
[1] = test system: clinical HCMV isolates; experiment: Infection assays with clinical isolates on HFF; assay type: cell-based, Human Cytomegalovirus
Description: The antiviral activity of HD5 (1-9) (SEQ ID No. 1) in concentrations from 1.56 μM to 100 μM against infection with clinical HCMV isolates was investigated on HFF. In addition to the laboratory-adapted strain TB40/E-ΔUL16-eGFP, which served as reference strain, a breast milk-derived strain, an amniotic fluid-isolated strain and a multidrug-resistant viral isolate from leukocytes of a recipient after the third stem cell transplantation were used. The therapy-naïve strain from cell free milk whey (H1241-2016) was derived from a […] of a preterm infant 10 weeks postpartum during end of viral reactivation. The amnion fluid derived virus strain (H2497-2011) was isolated following termination of pregnancy based on severe fetal brain damage. The multidrug resistant CMV isolate (H815-2006) is already described (Gohring et al., “Dynamics of coexisting HCMV-UL97 and UL54 drug-resistance associated mutations in patients after haematopoietic cell transplantation”, J. Clin. Virol. 57(1):43-49, 2013). […] All viral isolates were primarily HFF-adapted and propagated in vitro with at least 10 passages to get TCID values of cell free viral supernatants of […].
Next, a peptide of the invention, i.e. HD5 (1-9) was tested on clinical HCMV isolates. 10 000 HFF were seeded into each well of a 96-well-plate containing 200 μl of medium. Cells were incubated overnight at 37° C. and 5% CO2. Next day medium was changed to medium without P/S. Cells were infected with different clinical HCMV isolates (MOI 0,2) and treated with peptide in concentrations from 1.56 μM to 100 μM in a volume of 100 μl. After 40 h of incubation cells were fixed with 2% PFA in PBS and permeabilised with 90% methanol in H2O. Afterwards an antibody staining for IE-antigens was performed and nuclei were stained with DAPI. Infection rate was analysed (IE+/DAPI+, normalized to medium control, n=1).
HCMV TB40/E is a lab-adapted strain that might differ from primary HCMV isolates in terms of cellular tropism, infectivity or cytopathic properties. […]

[2] = test system: HCMV TB40/E-ΔUL16-eGFP; experiment: Infection assay: HFF infected with TB40E-ΔUL16-EGFP and treated with HD5-derived peptides (screening, GFP+/DAPI+); assay type: cell-based, Human Cytomegalovirus; conditions: 75 μM peptide, MOI 0,5, 40 h, compared to other tested peptides
Description: For the infection assays, the cells were sown in 96-well plates. Human foreskin fibroblasts (HFF) and ARPE-19 cells (Adult Retinal Pigment Epithelial cell line-19) were seeded with 10 000 cells in 200 μl medium per well, macrophages with 20 000 cells in 200 μl medium per well and THP with 50 000 cells in 200 μl per well. The cells were incubated overnight at 37° C. and 5% CO2 and treated the following day. A medium change to P/S-free medium was performed to avoid interaction between the antibiotics used and the peptide sequences. Afterwards the corresponding peptides were added in different concentrations and immediately afterwards the virus, the final volume was 100 μl per well. The virus of the strain TB40/E-ΔUL16-eGFP was used. TB40-ΔUL16-eGFP is a derivative of the strain TB40, in which the majority of the open reading frame UL16 has been replaced by the open reading frame of eGFP, essentially as described in detail for a homologous mutant of strain AD169 (Tischer et al., “Two-step red-mediated recombination for versatile high-efficiency markerless DNA manipulation in Escherichia coli”, Biotechniques, (2006), 40(2):191-7). […] The required volume of the virus stock was calculated using the titer according to the following formula: […]

## C[C@H](N)C(=O)N[C@H](C(=O)N[C@@H](CS)C(=O)N[C@@H](Cc1ccc(O)cc1)C(=O)N[C@@H](CS)C(=O)N[C@@H](CCCNC(=N)N)C(=O)N[C@H](C(=O)NCC(=O)N[C@@H](CCCNC(=N)N)C(=O)O)[C@@H](C)O)[C@@H](C)O [HD5 (1-9), ATCYCRTGR] (H-ATCYCRTGR-OH; N-terminus and C-terminus assumed)
[1]; 100 μM in HFF, MOI 0.2 and 0.1
  inhibition of HCMV infection: inhibited HCMV infection efficiently
[1]; HFF, 40 h
  concentration at which inhibition of infection with all clinical isolates starts: ≥ 50 µM
[1]; HFF, MOI 0.2 and 0.1
  inhibition of infection with primary isolates (amniotic fluid, breast milk, multiresistant leukocyte isolate): sensitive towards inhibition
[2]
  antiviral effect (infection rate GFP+/DAPI+): excellent antiviral effect
